Measured values taken from patent publication US20240158446A1, “CYCLIC COMPOUND HAVING SELECTIVE INHIBITORY ACTION ON KRAS OVER HRAS AND NRAS” (CHUGAI SEIYAKU KABUSHIKI KAISHA, priority 2021, published 2024).

Tests used:
[1] = target: GDP-bound KRAS wild-type protein (Homo sapiens, UniProt P01116); assay: Binding to KRAS by surface plasmon resonance (SPR), Single Cycle Kinetics; conditions: SPR, Single Cycle Kinetics, 1:1 binding model; GDP-bound KRAS wild-type protein; read-out: KRAS KD
[2] = target: GDP-bound NRAS wild-type protein (Homo sapiens, UniProt P01111); assay: Binding to NRAS by surface plasmon resonance (SPR), Single Cycle Kinetics; conditions: SPR; GDP-bound NRAS wild-type protein vs GDP-bound KRAS wild-type protein; KD ratio class
Chain of GDP-bound NRAS wild-type protein (P01111 whole entry): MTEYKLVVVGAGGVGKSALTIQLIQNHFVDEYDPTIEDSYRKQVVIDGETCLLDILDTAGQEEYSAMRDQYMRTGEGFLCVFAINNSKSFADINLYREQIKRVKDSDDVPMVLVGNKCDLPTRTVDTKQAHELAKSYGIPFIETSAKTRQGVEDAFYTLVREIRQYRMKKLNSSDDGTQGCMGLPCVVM

[3] = target: GDP-bound HRAS wild-type protein (Homo sapiens, UniProt P01112); assay: Binding to HRAS by surface plasmon resonance (SPR), Single Cycle Kinetics; conditions: SPR; GDP-bound HRAS wild-type protein vs GDP-bound KRAS wild-type protein; KD ratio class
Chain of GDP-bound HRAS wild-type protein (P01112 whole entry): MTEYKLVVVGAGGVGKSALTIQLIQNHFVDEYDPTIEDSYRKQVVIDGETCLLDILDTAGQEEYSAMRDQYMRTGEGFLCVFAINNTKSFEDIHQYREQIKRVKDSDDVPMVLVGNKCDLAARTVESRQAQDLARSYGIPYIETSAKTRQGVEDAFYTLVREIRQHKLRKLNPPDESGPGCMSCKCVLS

Chain of GDP-bound KRAS wild-type protein (P01116 whole entry): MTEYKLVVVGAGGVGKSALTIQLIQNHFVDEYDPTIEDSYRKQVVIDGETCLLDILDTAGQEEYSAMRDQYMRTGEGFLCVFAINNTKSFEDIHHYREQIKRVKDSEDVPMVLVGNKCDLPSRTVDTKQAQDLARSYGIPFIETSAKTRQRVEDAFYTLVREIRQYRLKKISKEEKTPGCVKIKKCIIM

Structure (SMILES)	Kd [1] [nM]	NRAS/KRAS (ratio of KD value for NRAS to KD value for KRAS) [2]	HRAS/KRAS (ratio of KD value for HRAS to KD value for KRAS) [3]
CCO[C@@H]1C[C@H]2C(=O)NC3(CCC3)C(=O)N(C)[C@@H](C(CC)CC)C(=O)N(C)[C@H](C)CC(=O)N(C)[C@@H](CC3CCCC3)C(=O)N[C@@H]([C@@H](C)CC)C(=O)N(C)CC(=O)N(C)[C@H]3C/C=C\CCN(C3=O)[C@@H](Cc3ccc(F)cc3C)C(=O)N(C)CC(=O)N[C@@H](CCc3cc(F)c(C(F)(F)F)c(F)c3)C(=O)N2C1 [PP1522]	8.8	A (a compound having 10 or more and less than 20 is denoted as A)	A (a compound having 10 or more and less than 20 is denoted as A)
CCO[C@@H]1C[C@H]2C(=O)NC3(CCC3)C(=O)N(C)[C@@H](C(CC)CC)C(=O)N(C)[C@H](C(=O)N3CCOCC3)CC(=O)N(C)[C@@H](CC3CC3)C(=O)N[C@@H]([C@@H](C)CC)C(=O)N(C)CC(=O)N(C)[C@H]3C/C=C\CCN(C3=O)[C@@H](Cc3ccc(F)cc3C)C(=O)N(C)CC(=O)N[C@@H](CCc3cc(F)c(C(F)(F)F)c(F)c3)C(=O)N2C1 [PP1526]	1.3	A (a compound having 10 or more and less than 20 is denoted as A)	A (a compound having 10 or more and less than 20 is denoted as A)
CCO[C@@H]1C[C@H]2C(=O)NC3(CCC3)C(=O)N(C)[C@@H](C3CCCC3)C(=O)N(C)[C@H](C(=O)N(C)C)CC(=O)N(C)[C@@H](CC(C)C)C(=O)N[C@@H]([C@@H](C)CC)C(=O)N(C)CC(=O)N(C)[C@H]3C/C=C\CCN(C3=O)[C@@H](Cc3ccc(F)cc3C)C(=O)N(C)CC(=O)N[C@@H](CCc3cc(F)c(C(F)(F)F)c(F)c3)C(=O)N2C1 [PP1532]	0.19	A (a compound having 10 or more and less than 20 is denoted as A)	B (a compound having 3 or more and less than 10 is denoted as B)
CC[C@H](C)[C@@H]1NC(=O)[C@H](CC2CC2)N(C)C(=O)C[C@@H](C(=O)N(C)C)N(C)C(=O)[C@H](C2CCCC2)N(C)C(=O)C2(CCC2)NC(=O)[C@@H]2[C@@H](OCC(F)F)CCN2C(=O)[C@H](CCc2cc(F)c(C(F)(F)F)c(F)c2)NC(=O)CN(C)C(=O)[C@H](Cc2ccc(C(F)(F)F)cc2)N2CC/C=C\C[C@@H](C2=O)N(C)C(=O)CN(C)C1=O [PP1533]	0.13	AA (a compound having 20 or more is denoted as AA)	A (a compound having 10 or more and less than 20 is denoted as A)
CC[C@H](C)[C@@H]1NC(=O)[C@H](CC(C)C)N(C)C(=O)C[C@@H](C(=O)N(C)C)N(C)C(=O)[C@H](C2CCCC2)N(C)C(=O)C2(CCC2)NC(=O)[C@@H]2[C@@H](OCC(F)F)CCN2C(=O)[C@H](CCc2cc(F)c(C(F)(F)F)c(F)c2)NC(=O)CN(C)C(=O)[C@H](Cc2ccc(C(F)(F)F)cc2)N2CC/C=C\C[C@@H](C2=O)N(C)C(=O)CN(C)C1=O [PP1534, (2S,8S,13S,14S,20S,23S,27S,30S,36S,38Z)-20-cyclopentyl-13-(2,2-difluoroethoxy)-8-[2-[3,5-difluoro-4-(trifluoromethyl)phenyl]ethyl]-27-isobutyl-N,N,4,19,22,26,32,35-octamethyl-30-[(1S)-1-methylpropyl]-3,6,9,15,18,21,25,28,31,34,42-undecaoxo-2-[[4-(trifluoromethyl)phenyl]methyl]spiro[1,4,7,10,16,19,22,26,29,32,35-undecazatricyclo[34.5.1.0^10,14]dotetracont-38-ene-17,1′-cyclobutane]-23-carboxamide]	0.13	AA (a compound having 20 or more is denoted as AA)	A (a compound having 10 or more and less than 20 is denoted as A)
CC[C@H](C)[C@@H]1NC(=O)[C@H](CC2CCCC2)N(C)C(=O)C[C@@H](C(=O)N(C)C)N(C)C(=O)[C@@H](C2CCCC2)N(C)C(=O)C2(CCC2)NC(=O)[C@@H]2[C@@H](OCC(F)F)CCN2C(=O)[C@@H](CCc2cc(F)c(C(F)(F)F)c(F)c2)NC(=O)CN(C)C(=O)[C@@H](Cc2ccc(C)cc2)N2CC/C=C\C[C@H](C2=O)N(C)C(=O)CN(C)C1=O [PP1536]	0.2	A (a compound having 10 or more and less than 20 is denoted as A)	B (a compound having 3 or more and less than 10 is denoted as B)

These reach a lower Kd [1]. Values come first.

Kd [1] [nM]	Structure (SMILES)	NRAS/KRAS (ratio of KD value for NRAS to KD value for KRAS) [2]	HRAS/KRAS (ratio of KD value for HRAS to KD value for KRAS) [3]
0.12	CCO[C@@H]1C[C@H]2C(=O)NC3(CCC3)C(=O)N(C)[C@@H](C3CCCC3)C(=O)N(C)[C@H](C(=O)N(C)C)CC(=O)N(C)[C@@H](CC3CCCC3)C(=O)N[C@@H]([C@@H](C)CC)C(=O)N(C)CC(=O)N(C)[C@H]3C/C=C\CCN(C3=O)[C@@H](Cc3ccc(F)cc3)C(=O)N(C)CC(=O)N[C@@H](CCc3cc(F)c(C(F)(F)F)c(F)c3)C(=O)N2C1 [PP1531, (2S,8S,12R,14S,20S,23S,27S,30S,36S,38Z)-20-cyclopentyl-27-(cyclopentylmethyl)-8-[2-[3,5-difluoro-4-(trifluoromethyl)phenyl]ethyl]-12-ethoxy-2-[(4-fluorophenyl)methyl]-N,N,4,19,22,26,32,35-octamethyl-30-[(1S)-1-methylpropyl]-3,6,9,15,18,21,25,28,31,34,42-undecaoxo-spiro[1,4,7,10,16,19,22,26,29,32,35-undecazatricyclo[34.5.1.0^10,14]dotetracont-38-ene-17,1′-cyclobutane]-23-carboxamide]	A (a compound having 10 or more and less than 20 is denoted as A)	B (a compound having 3 or more and less than 10 is denoted as B)
0.086	CC[C@H](C)[C@@H]1NC(=O)[C@H](CC2CC2)N(C)C(=O)C[C@@H](C(=O)N(C)CC)N(C)C(=O)[C@H](C2CCCC2)N(C)C(=O)C2(CCC2)NC(=O)[C@@H]2CC(F)(F)CN2C(=O)[C@H](CCc2cc(F)c(C(F)(F)F)c(F)c2)NC(=O)CN(C)C(=O)[C@H](Cc2ccc(C(F)(F)F)cc2)N2CC/C=C\C[C@@H](C2=O)N(C)C(=O)CN(C)C1=O [PP1538]	A (a compound having 10 or more and less than 20 is denoted as A)	B (a compound having 3 or more and less than 10 is denoted as B)
0.067	CC[C@H](C)[C@@H]1NC(=O)[C@H](CC2CC2)N(C)C(=O)C[C@@H](C(=O)N(C)CC)N(C)C(=O)[C@H](C2CCCC2)N(C)C(=O)C2(CCC2)NC(=O)[C@@H]2C[C@H](C)CN2C(=O)[C@H](CCc2cc(F)c(C(F)(F)F)c(F)c2)NC(=O)CN(C)C(=O)[C@H](Cc2ccc(C(F)(F)F)cc2)N2CC/C=C\C[C@@H](C2=O)N(C)C(=O)CN(C)C1=O [PP1537, (2S,8S,12S,14S,20S,23S,27S,30S,36S,38Z)-20-cyclopentyl-27-(cyclopropylmethyl)-8-[2-[3,5-difluoro-4-(trifluoromethyl)phenyl]ethyl]-N-ethyl-N,4,12,19,22,26,32,35-octamethyl-30-[(1S)-1-methylpropyl]-3,6,9,15,18,21,25,28,31,34,42-undecaoxo-2-[[4-(trifluoromethyl)phenyl]methyl]spiro[1,4,7,10,16,19,22,26,29,32,35-undecazatricyclo[34.5.1.0^10,14]dotetracont-38-ene-17,1′-cyclobutane]-23-carboxamide]	AA (a compound having 20 or more is denoted as AA)	A (a compound having 10 or more and less than 20 is denoted as A)
